In patent US10758534B2 (Vertex Pharmaceuticals Incorporated, priority 2014, dated 2020):

Target: T1, F508del (Homo sapiens, UniProt P13569, DEL508-508)
T1 construct: expressed in transfected cells
Experiment: Protocol 2: FRET membrane potential optical assay (VIPR), identification of correction compounds
Type: cell-based
Details: F508del CFTR modulator activity; compounds of Table 1; read-out: EC30
How it was run: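 NIH3T3 mouse fibroblasts stably expressing F508del were treated with test compound for 16 hrs at 37° C. in serum-free medium; 27° C. incubation served as positive control. F508del was activated with 10 μM forskolin plus 20 μM genistein in Cl^−-free medium, and Cl^− efflux-driven depolarization was read by DiSBAC2(3)/CC2-DMPE FRET.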

T1 sequence (P13569 with tags, fused parts or gaps DEL508-508): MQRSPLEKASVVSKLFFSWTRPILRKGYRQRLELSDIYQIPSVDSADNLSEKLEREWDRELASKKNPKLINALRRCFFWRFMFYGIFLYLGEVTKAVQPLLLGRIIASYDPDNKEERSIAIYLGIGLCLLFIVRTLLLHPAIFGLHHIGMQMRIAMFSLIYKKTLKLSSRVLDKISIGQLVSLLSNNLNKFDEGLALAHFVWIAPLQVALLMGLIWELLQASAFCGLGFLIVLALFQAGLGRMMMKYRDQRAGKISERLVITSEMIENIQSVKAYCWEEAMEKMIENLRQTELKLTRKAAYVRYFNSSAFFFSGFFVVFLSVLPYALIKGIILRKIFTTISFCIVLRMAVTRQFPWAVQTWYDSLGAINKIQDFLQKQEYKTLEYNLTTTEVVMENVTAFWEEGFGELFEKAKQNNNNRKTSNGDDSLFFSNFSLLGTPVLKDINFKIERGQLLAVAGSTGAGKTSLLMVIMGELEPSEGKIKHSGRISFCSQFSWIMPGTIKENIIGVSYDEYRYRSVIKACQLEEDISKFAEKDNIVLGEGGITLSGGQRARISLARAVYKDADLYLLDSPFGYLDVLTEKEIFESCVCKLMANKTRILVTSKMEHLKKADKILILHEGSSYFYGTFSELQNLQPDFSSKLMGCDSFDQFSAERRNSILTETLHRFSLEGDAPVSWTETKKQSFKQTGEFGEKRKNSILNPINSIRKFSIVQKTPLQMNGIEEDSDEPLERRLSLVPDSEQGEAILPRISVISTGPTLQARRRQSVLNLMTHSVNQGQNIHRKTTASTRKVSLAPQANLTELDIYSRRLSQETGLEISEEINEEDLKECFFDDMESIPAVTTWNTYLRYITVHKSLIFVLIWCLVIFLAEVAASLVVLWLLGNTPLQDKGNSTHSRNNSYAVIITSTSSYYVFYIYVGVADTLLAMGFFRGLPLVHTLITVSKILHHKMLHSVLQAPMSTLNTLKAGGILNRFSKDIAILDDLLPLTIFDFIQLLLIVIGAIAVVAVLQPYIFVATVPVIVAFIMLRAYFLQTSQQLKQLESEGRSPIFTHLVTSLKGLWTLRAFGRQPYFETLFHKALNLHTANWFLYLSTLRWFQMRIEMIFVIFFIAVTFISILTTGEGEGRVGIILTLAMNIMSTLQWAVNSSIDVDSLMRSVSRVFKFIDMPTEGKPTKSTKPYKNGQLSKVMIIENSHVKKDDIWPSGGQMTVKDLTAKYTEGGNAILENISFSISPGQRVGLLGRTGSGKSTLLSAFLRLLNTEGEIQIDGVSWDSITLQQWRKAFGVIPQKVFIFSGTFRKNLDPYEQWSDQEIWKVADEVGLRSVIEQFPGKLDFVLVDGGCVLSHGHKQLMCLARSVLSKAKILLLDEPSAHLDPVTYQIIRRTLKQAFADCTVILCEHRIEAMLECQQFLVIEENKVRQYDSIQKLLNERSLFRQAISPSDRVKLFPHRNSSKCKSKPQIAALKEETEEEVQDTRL

| Structure (SMILES) | EC30 |
| --- | --- |
| Cc1ccc(F)c(-c2ccc(C(=O)NS(=O)(=O)N3CC[C@H](N)C3)c(N3C[C@@H](C)CC3(C)C)n2)c1 [Compound 2016, N-[(3S)-3-aminopyrrolidin-1-yl]sulfonyl-6-(2-fluoro-5-methyl-phenyl)-2-[(4S)-2,2,4-trimethylpyrrolidin-1-yl]pyridine-3-carboxamide] | 3000 to 10000 nM |
| Cc1ccc(-c2ccc(C(=O)NS(=O)(=O)c3cccnc3N)c(N3C[C@@H](C)CC3(C)C)n2)cc1C [Compound 2017, N-[(2-amino-3-pyridyl)sulfonyl]-6-(3,4-dimethylphenyl)-2-[(4S)-2,2,4-trimethylpyrrolidin-1-yl]pyridine-3-carboxamide] | < 3000 nM |
| CCOc1cc(F)cc(-c2ccc(C(=O)NS(=O)(=O)c3cccnc3N)c(N3C[C@@H](C)CC3(C)C)n2)c1 [Compound 2018, N-[(2-amino-3-pyridyl)sulfonyl]-6-(3-ethoxy-5-fluoro-phenyl)-2-[(4S)-2,2,4-trimethylpyrrolidin-1-yl]pyridine-3-carboxamide] | < 3000 nM |
| CC1CN(c2ncccc2C(=O)NS(=O)(=O)c2cccc(OCC(C)C3CCCCC3)n2)C(C)(C)C1 (stereo not shown) [Compound 2019, N—[[6-(2-cyclohexylpropoxy)-2-pyridyl]sulfonyl]-2-(2,2,4-trimethylpyrrolidin-1-yl)pyridine-3-carboxamide] | < 3000 nM |
| CC(C)[C@@H](C)Oc1nc(N2C[C@@H](C)CC2(C)C)c(C(=O)NS(=O)(=O)c2cccc(N)n2)cc1F [Compound 2020, N-[(6-amino-2-pyridyl)sulfonyl]-6-[(1R)-1,2-dimethylpropoxy]-5-fluoro-2-[(4S)-2,2,4-trimethylpyrrolidin-1-yl]pyridine-3-carboxamide] | < 3000 nM |
| C[C@@H]1CN(c2nc(-c3cnc(N(C)C)nc3)ccc2C(=O)NS(=O)(=O)c2cccnc2N)C(C)(C)C1 [Compound 2021, N-[(2-amino-3-pyridyl)sulfonyl]-6-[2-(dimethylamino)pyrimidin-5-yl]-2-[(4S)-2,2,4-trimethylpyrrolidin-1-yl]pyridine-3-carboxamide] | 3000 to 10000 nM |
| CC1CN(c2ncccc2C(=O)NS(=O)(=O)c2cccc(Nc3ccc(-c4ccccc4)cc3)n2)C(C)(C)C1 (stereo not shown) [Compound 2023, N—[[6-(4-phenylanilino)-2-pyridyl]sulfonyl]-2-(2,2,4-trimethylpyrrolidin-1-yl)pyridine-3-carboxamide] | < 3000 nM |
| COC[C@@H]1CCCN1c1cccc(S(=O)(=O)NC(=O)c2cccnc2N2CC(C)CC2(C)C)n1 (stereo partly drawn) [Compound 2024, N—[[6-[(2S)-2-(methoxymethyl)pyrrolidin-1-yl]-2-pyridyl]sulfonyl]-2-(2,2,4-trimethylpyrrolidin-1-yl)pyridine-3-carboxamide] | 3000 to 10000 nM |
| CC1CN(c2ncccc2C(=O)NS(=O)(=O)c2cccc(OCCC(C)(C)C)n2)C(C)(C)C1 (stereo not shown) [Compound 2025, N—[[6-(3,3-dimethylbutoxy)-2-pyridyl]sulfonyl]-2-(2,2,4-trimethylpyrrolidin-1-yl)pyridine-3-carboxamide] | < 3000 nM |
| CC1CN(c2ncccc2C(=O)NS(=O)(=O)c2cccc(NCC3CCCC3)n2)C(C)(C)C1 (stereo not shown) [Compound 2026, N—[[6-(cyclopentylmethylamino)-2-pyridyl]sulfonyl]-2-(2,2,4-trimethylpyrrolidin-1-yl)pyridine-3-carboxamide] | < 3000 nM |
| CC(C)OC(=O)N1CC=C(c2cc(C(=O)NS(=O)(=O)c3cccc(N)n3)c(N3C[C@@H](C)CC3(C)C)nc2C(C)(C)C)CC1 [Compound 2027, isopropyl 4-[5-[(6-amino-2-pyridyl)sulfonylcarbamoyl]-2-tert-butyl-6-[(4S)-2,2,4-trimethylpyrrolidin-1-yl]-3-pyridyl]-3,6-dihydro-2H-pyridine-1-carboxylate] | < 3000 nM |
| C[C@@H]1CN(c2nc(-c3ccc(Cl)cc3)ccc2C(=O)NS(=O)(=O)c2ccc[nH]c2=O)C(C)(C)C1 [Compound 2028, 6-(4-chlorophenyl)-N-[(2-oxo-1H-pyridin-3-yl)sulfonyl]-2-[(4S)-2,2,4-trimethylpyrrolidin-1-yl]pyridine-3-carboxamide] | < 3000 nM |
| C[C@@H]1CN(c2nc(-c3cccc(OC(F)(F)F)c3)ccc2C(=O)NS(=O)(=O)N2CC[C@H](N)C2)C(C)(C)C1 [Compound 2029, N-[(3S)-3-aminopyrrolidin-1-yl]sulfonyl-6-[3-(trifluoromethoxy)phenyl]-2-[(4S)-2,2,4-trimethylpyrrolidin-1-yl]pyridine-3-carboxamide] | < 3000 nM |
| CC1CCCN(c2cccc(S(=O)(=O)NC(=O)c3cccnc3N3CC(C)CC3(C)C)n2)C1 (stereo not shown) [Compound 2030, N—[[6-(3-methyl-1-piperidyl)-2-pyridyl]sulfonyl]-2-(2,2,4-trimethylpyrrolidin-1-yl)pyridine-3-carboxamide] | < 3000 nM |
| COc1cccc(-c2cnc(N3CC(C)CC3(C)C)c(C(=O)NS(=O)(=O)c3cccc(N)n3)c2)c1 (stereo not shown) [Compound 2031, N-[(6-amino-2-pyridyl)sulfonyl]-5-(3-methoxyphenyl)-2-(2,2,4-trimethylpyrrolidin-1-yl)pyridine-3-carboxamide] | < 3000 nM |
| CC1CN(c2ncccc2C(=O)NS(=O)(=O)c2cccc(OCC3CCOCC3)n2)C(C)(C)C1 (stereo not shown) [Compound 2032, N—[[6-(tetrahydropyran-4-ylmethoxy)-2-pyridyl]sulfonyl]-2-(2,2,4-trimethylpyrrolidin-1-yl)pyridine-3-carboxamide] | 3000 to 10000 nM |
| COc1cccc(F)c1-c1ccc(C(=O)NS(=O)(=O)c2cccnc2N)c(N2C[C@@H](C)CC2(C)C)n1 [Compound 2033, N-[(2-amino-3-pyridyl)sulfonyl]-6-(2-fluoro-6-methoxy-phenyl)-2-[(4S)-2,2,4-trimethylpyrrolidin-1-yl]pyridine-3-carboxamide] | < 3000 nM |
| Cc1ccc(O)c(-c2ccc(C(=O)NS(=O)(=O)c3cccc(N)n3)c(N3C[C@@H](C)CC3(C)C)n2)c1 [Compound 2034, N-[(6-amino-2-pyridyl)sulfonyl]-6-(2-hydroxy-5-methyl-phenyl)-2-[(4S)-2,2,4-trimethylpyrrolidin-1-yl]pyridine-3-carboxamide] | < 3000 nM |
| C[C@@H]1CN(c2nc(-c3cc(F)c(F)cc3F)ccc2C(=O)NS(=O)(=O)c2cccnc2N)C(C)(C)C1 [Compound 2035, N-[(2-amino-3-pyridyl)sulfonyl]-6-(2,4,5-trifluorophenyl)-2-[(4S)-2,2,4-trimethylpyrrolidin-1-yl]pyridine-3-carboxamide] | < 3000 nM |
| CC(C)Cc1ccn(-c2ccc(C(=O)NS(=O)(=O)c3cccnc3N)c(N3C[C@@H](C)CC3(C)C)n2)n1 [Compound 2036, N-[(2-amino-3-pyridyl)sulfonyl]-6-(3-isobutylpyrazol-1-yl)-2-[(4S)-2,2,4-trimethylpyrrolidin-1-yl]pyridine-3-carboxamide] | < 3000 nM |
| Cc1ccc(-c2ccc(C(=O)NS(=O)(=O)c3ccc[nH]c3=O)c(N3C[C@@H](C)CC3(C)C)n2)c(C)c1 [Compound 2037, 6-(2,4-dimethylphenyl)-N-[(2-oxo-1H-pyridin-3-yl)sulfonyl]-2-[(4S)-2,2,4-trimethylpyrrolidin-1-yl]pyridine-3-carboxamide] | < 3000 nM |
| CC1CN(c2ncccc2C(=O)NS(=O)(=O)c2cccc(OC3CCCC(C)(C)C3)n2)C(C)(C)C1 (stereo not shown) [Compound 2038, N—[[6-(3,3-dimethylcyclohexoxy)-2-pyridyl]sulfonyl]-2-(2,2,4-trimethylpyrrolidin-1-yl)pyridine-3-carboxamide] | < 3000 nM |
